The test system of the assay is 3T3-L1 preadipocyte line. The assay can be described thus: In-vitro lipid-lowering (adipocyte-degrading) activity analysis, MTT detection. Type of assay: cell-based. Here is the method: Lipid degradation activity of the synthesized leptin active peptide having helix D region mutation is analyzed on a cellular level by taking a 3T3-L1 preadipocyte line as a model. Specific operations are as follows:
b: an early differentiation stage D0-D2 (0-2nd day of induced differentiation); and
c: a mature adipocyte stage D9 (the 9th day of induced differentiation);
a. leptin active peptide having helix D region mutation (PEP-D): diluted to 10^−3M with purified water and preserved at −20 degree C. for later use. After an experiment is started, working concentrations have 3 concentration gradients, that is, 10^−6M, 10^−9M and 10^−11M;
b. positive control. I: H-LEP, recombinant human-derived leptin protein (10221-HNAE, Beijing Sino Biological Inc.), diluted to 10^−6M with purified water and preserved at −20 degree C. for later use. After an experiment is started, the working concentration is 10^−9M;
c. positive control 2: Ros (Rosiglitazone, 82408, Sigma), diluted to a stock solution with a concentration of 2518 μM with DMSO and preserved at −20 degree C. for later use. After an experiment is started, the stock solution is diluted to a working solution of 0.5 μM with cell culture fluid;
d. negative control (Control): equivalent quantity of PBS
(1) Inoculating 3T3-L1 preadipocytes in corning cell bind 96-well plates (totally inoculated with 3 plates, respectively plate a, plate b and plate c), wherein the inoculation density is 4500 cells/well; and marking, and standing and culturing at 37 degree C. in a 5% CO2 incubator. Each sample of each plate is operated repeatedly for 3 times, and the whole experiment is repeated for 3 times;
(2) Continuously culturing for 48 hours after the cells are merged to 100% (enabling the cells to exit from a growth cycle, and starting induced differentiation); and
i, taking out the plate a; respectively adding different amounts of leptin active peptide having helix D region mutation (PEP-D) to enable the working concentrations to be respectively 3 concentration gradients, that is, 10^−6M, 10^−9M and 10^−11M; setting 2 positive controls, a negative control (PBS) and a blank control (3 repeated holes are set for each sample), and continuously standing and culturing at 37 degree C. in the 5% CO2 incubator.
ii, when culturing to 45 hours (that is, 3 hours before the end of drug treatment), taking out the plate a, and measuring MTT (preadipocytes). Specific operations: adding 20 μL of 5 mg/mL of MTT solution into each well, continuously standing and culturing at 37 degree C. in the 5% CO2 incubator for 3 hours, sucking and discarding the culture solution in the wells, adding 150 μL of DMSO into each well, horizontally shaking for 10 min, detecting a light absorption value at 492 nm by a microplate reader, and drawing a growth curve;
i, taking out the plate b; adding the differentiation induced liquid I (D0); respectively adding the leptin active peptide having helix D region mutation (PEP-D); setting 2 positive controls, a negative control (PBS) and a blank control (3 repeated holes are set for each sample), and continuously standing and culturing at 37 degree C. in the 5% CO2 incubator.
ii, when culturing to 45 hours (that is, 3 hours before the end of drug treatment), taking out the plate b, and measuring MTT (at the early differentiation stage, D0-D2). Specific operations: adding 20 μL, of 5 mg/mL of MTT solution into each well; continuously standing and culturing at 37 degree C. in the 5% CO2 incubator for 3 hours; sucking and discarding the culture solution in the wells; adding 150 μL of DMSO into each well; horizontally shaking for 10 min; detecting a light absorption value at 492 nm by the microplate reader; and drawing a growth curve;
i, taking out the plate c; adding the differentiation induced liquid I (D0) into each well; and continuously standing and culturing at 37 degree C. in the 5% CO2 incubator for 48 hours; […]

For “H-LEP: recombinant human-derived leptin protein (10221-HNAE, Beijing Sino Biological Inc.), positive control”, the “adipocyte lysis activity vs. negative control (Control, PBS)” value (MTT, FIG. 2 mark a, P<0.05, H-LEP 10^−9M, Ros 0.5 μM) is on record as “obviously better than that of the negative control”.
Regarding “STEVVALDGLQGSLQTMLLQLEYS (An amino acid sequence of the leptin active peptide having helix D region mutation) [PEP-D]”, where the note is “MTT, FIG. 2 mark b, P<0.05”, the “adipocyte lysis activity vs. H-LEP” value was “obviously better than that of the H-LEP”. For the same substance, the “adipocyte lysis activity vs. Ros” value (MTT, FIG. 2 mark c, P<0.05) is on record as “obviously better than that of the Ros”. The “concentration dependence of lipid-lowering activity” value (MTT, PEP-D at 10^−6M, 10^−9M and 10^−11M) is reported as “obvious concentration dependence”. In addition, the “concentration with optimal lipid-lowering effect” value (MTT, of 10^−6M, 10^−9M and 10^−11M tested, on a whole) is reported as 10^−9 M. In addition, the “dependence of lipid-lowering activity on cell differentiation period” value (MTT, preadipocytes, D0-D2, D9) is on record as “dependence in a cell differentiation period”. Further, the “adipocyte-degrading activity compared with positive controls H-LEP and Ros” value (MTT, three cell differentiation stages (preadipocytes, early differentiation D0-D2, mature adipocyte D9), H-LEP 10^−9M, Ros 0.5 μM) was “obviously better than that of positive control-human-derived leptin protein (H-LEP) and a commercially available drug rosiglitazone (Ros)”. Besides, for the setting “preadipocytes stage, differentiation stage (D0-D2), mature adipocyte stage (D9)”, the “cell lysis effects at three stages” value was “obvious cell lysis effects”.

(Values after US10342853B2, “Leptin active peptide having D helix region mutations, coding gene thereof, and application thereof” (SHANGHAI YUANXIN BIOCHEMICAL SCIENCE AND TECHNOLOGY CO. LTD., priority 2015, dated 2019).)
